Results: patent US6495678B1, “Immunosuppressant containing glucopyranose derivative as active ingredient” (Ono Pharmaceutical Co., Ltd., priority 1998, dated 2002)
Values joined by “and” are separate entries in the source; they are usually repeats but may differ in a detail not shown here. Equal entries are not always repeated. Marks after values point to notes of the source that are not given here.

Legend:
SD rats = assay: Acute toxicity LD50, intravenous injection; format: in vivo, rat
Method: The toxicity of the compounds of the present invention of the formula (I) is very low and therefore, the compounds may be considered safe for pharmaceutical use. For example, LD50 of 2-deoxy-2-[3S-(9-phenylnonanoyloxy)tetradecanoyl]-amino-3-O-(9-phenylnonanoyl)-4-O-sulfo-D-glucopyranose sodium salt (The compound (1) described hereinafter) is 60-70 mg/kg on SD rats were administrated by intravenous injection.

[1] = test system: DNFB-induced mouse ear edema; assay: DNFB-induced mouse ear edema; format: in vivo; details: for Increasing ratio of auricle thickness: 1 hour after reaction induction
Method: Anti-DNP-IgE antibody (3 μg/body) was administered from the caudal vein of each of female Balb/c mice of 7 weeks of age, and the reaction was induced by applying 25 μl of a 0.15% DNFB-containing acetone:olive oil (3:1) mixed solution (hereinafter referred to as “antigen”) to each of both sides of the left and right auricles 24 hours after the administration. Each compound to be tested was administered orally or intravenously 1 hour before the reaction induction. Before the reaction induction and 1 hour after the reaction induction, auricle thickness was measured using a dial sickness gage, and the average value of the left and right auricle thicknesses was used as the measured value at respective time. The value was shown by the increasing ratio of the auricle thickness from before the reaction induction. In Table 9, treatments in each group are as follows.
Vehicle: anti-DNP-IgE antibody administration+vehicle application+vehicle administration
Control: anti-DNP-IgE antibody administration+antigen application+vehicle administration
Compound (1): anti-DNP-IgE antibody administration+antigen application+Compound (1) administration

IgE antibody production = assay: Serum IgE antibody production in mouse allergic airway inflammation model; format: in vivo; details: 24 hours' heterogeneous (rat) PCA
Method: (§1) The test was carried out in accordance with the method of Nagai et al. (see H. Nagai, H. Takeda, S. Yamaguchi, H. Tanaka, A. Matsuo and N. Inagaki, “The effect of thromboxane A2 receptor antagonist BAY-u-3405 on experimental allergic reactions”, Prostaglandins, 50, 75-87, 1995). Specifically, 0.5 ml of physiological saline containing 50 μg of OVA and 1 mg of aluminum hydroxide gel as adjuvant was injected twice at 12 day interval into the abdominal cavity of each of male Balb/c mice of 7 weeks of age for active sensitization. After 22, 26 and 30 days of the initial sensitization, each animal was forced to inhale 1% OVA solution for 30 minutes using an ultrasonic nebulizer to prepare a mouse allergic airway inflammation model. Total blood and BALF were collected 8 hours after the final antigen inhalation. The collected blood was allowed to stand overnight at room temperature, and then centrifuged at 300 rpm for 15 minutes, and the light yellow transparent fraction separated into the supematant was used as an antiserum. The IgE antibody titer in the antiserum was measured by 24 hours' heterogeneous (rat) PCA. On the other hand, the collected BALF supernatant was used as a sample for cytokine measurement, and the cell pellets after preparation were counted as an index of the infiltration of inflammatory cells. Each compound to be tested was continuously administered 5 days starting from the day before each sensitization and 10 days starting from the day before inhalation, at a dose of 10, 30 or 100 mg/kg in the case of oral administration or 10 mg/kg in the case of intraperitoneal or intravenous injection. Results of the measurement of IgE antibody titer in serum and amount of IL-5 and the number of eosinophils in BALF are shown in Tables 10, 11 and 12, respectively. The treatments in each group shown in each table are as follows.
(§2) Physiological saline: physiological saline stimulation+vehicle administration
(§3) Control: OVA stimulation+vehicle administration
(§4) Compound (1): OVA stimulation+Compound (1) administration

IL-5 production in BALF = assay: BALF IL-5 production in mouse allergic airway inflammation model; format: in vivo
Method: as §1, §2, §3, §4

[2] = test system: eosinophils infiltration in BALF; assay: BALF eosinophils infiltration in mouse allergic airway inflammation model; format: in vivo
Method: as §1, §2, §3, §4

[3] = test system: Compound 48/80-induced scratching behavior; assay: Mouse Compound 48/80-induced itch model; format: in vivo; details: for The number of times of scratching: 20 minutes after injection of Compound 48/80
Method: This test was carried out in accordance with the method of Kubo et al. (Michinori Kubo, Hideaki Matsuda, Takeshi Itadaki, Yasuko Ido and Masayuki Yoshikawa, Studies on herb medicine and jifushi (first report), Anti-itching activity of 70% ethanol extract of jifushi and screening of effective component, Journal of the Pharmaceutical Society of Japan, 117(4), 193-201, 1997). Specifically, 0.1 ml of physiological saline containing Compound 48/80 (manufactured by Sigma Chemical Company) (100 μg) was administered subcutaneously into the dorsal part of each male ddy mouse of 6 to 7 weeks of age to induce scratching behavior. The scratching behavior was judged by measuring the number of times of scratching for 20 minutes immediately after the injection, by setting the behavior of each mouse to scratch the injected part with a hind leg for 1 second or more as one. Each compound to be tested was administered intravenously 1 hour before the induction.

[4] = test system: IL-2 production by spleen cells; assay: In vitro OVA-stimulated IL-2 production by spleen cells from OVA-sensitized mice; format: cell-based, mouse; details: for Amount of IL-2: spleen cells, 1 mg/ml OVA, 96 hours, ELISA
Method: (§5) OVA-sensitized animals were prepared in accordance with the method of Nagai et al. (the method described in Example 2). Specifically, 0.5 ml of physiological saline containing 50 μg of OVA and 1 mg of aluminum hydroxide gel as adjuvant was injected twice at 12 day interval into the abdominal cavity of each of male Balb/c mice of 7 weeks of age for active sensitization. After 22, 26 and 30 days of the initial sensitization, each animal was forced to inhale 1% OVA solution for 30 minutes using an ultrasonic nebulizer. After 8 hours of the final antigen inhalation, the spleen was collected to prepare spleen cells. The spleen cells were cultured for 96 hours in the presence of 1 mg/ml of OVA, and the cytokine released in the culture supernatant was determined by ELISA method. Each of the compounds to be tested was added to a final concentration of 0.3, 1, 3, 10 or 30 μM simultaneously with OVA.

[5] = test system: IFN-γ production by spleen cells; assay: In vitro OVA-stimulated IFN-γ production by spleen cells from OVA-sensitized mice; format: cell-based, mouse; details: for Amount of IFN-γ: Table 15, OVA-stimulated IFN-γ production, spleen cells, 96 hours, ELISA
Method: as §5

[6] = test system: IL-4 production by spleen cells; assay: In vitro OVA-stimulated IL-4 production by spleen cells from OVA-sensitized mice; format: cell-based, mouse; details: for Amount of IL-4: Table 16, OVA-stimulated IL-4 production, spleen cells, 96 hours, ELISA
Method: as §5

[7] = 0.3 to 30 μM, spleen cells from OVA-sensitized mice

## CCCCCCCCCCC[C@@H](CC(=O)N[C@H]1C(O)O[C@H](CO)[C@@H](OS(=O)(=O)[O-])[C@@H]1OC(=O)CCCCCCCCc1ccccc1)OC(=O)CCCCCCCCc1ccccc1.[Na+] (stereo partly drawn) [Compound (1), 2-deoxy-2-[3S-(9-phenylnonanoyloxy)tetradecanoyl]amino-3-O-(9-phenylnonanoyl)-4-O-sulfo-D-glucopyranose sodium]
SD rats
  LD50: 60 to 70 mg/kg
[1]; 10 mg/kg i.v.
  Increasing ratio of auricle thickness: 16.4 ± 1.9%
[1]; 10 mg/kg p.o.
  Increasing ratio of auricle thickness: 14.3 ± 1.8%
[1]; 40 mg/kg oral administration, versus control
  Inhibition of increase in the auricle thickness: 45%
[1]; 40 mg/kg p.o.
  Increasing ratio of auricle thickness: 10.2% and 10.2 ± 1.6 %
IgE antibody production; 10 mg/kg i.p.
  Serum IgE antibody titer: 69.3 ± 17.6***^b
IgE antibody production; 10 mg/kg i.v.
  Serum IgE antibody titer: 20.0 ± 3.7***^b
IgE antibody production; 10 mg/kg p.o.
  Serum IgE antibody titer: 304.0 ± 68.2
IgE antibody production; 30 mg/kg p.o.
  Serum IgE antibody titer: 176.0 ± 35.2
IgE antibody production; 100 mg/kg p.o.
  Serum IgE antibody titer: 120.0 ± 30.1
IL-5 production in BALF; 10 mg/kg i.p.
  Amount of IL-5 in BALF: 9.2 ± 1.5**^b pg/BALF
IL-5 production in BALF; 10 mg/kg i.v.
  Amount of IL-5 in BALF: 16.2 ± 3.8**^b pg/BALF
IL-5 production in BALF; 10 mg/kg p.o.
  Amount of IL-5 in BALF: 65.1 ± 15.9 pg/BALF
IL-5 production in BALF; 30 mg/kg p.o.
  Amount of IL-5 in BALF: 50.8 ± 13.7 pg/BALF
IL-5 production in BALF; 100 mg/kg p.o.
  Amount of IL-5 in BALF: 26.7 ± 7.5 pg/BALF
[2]; 10 mg/kg i.p.
  The number of eosinophils in BALF: 0.0 ± 0.0*^b × 10^5 cells/BALF
[2]; 10 mg/kg i.v.
  The number of eosinophils in BALF: 0.1 ± 0.0*^b × 10^5 cells/BALF
[2]; 10 mg/kg p.o.
  The number of eosinophils in BALF: 1.4 ± 0.4 × 10^5 cells/BALF
[2]; 30 mg/kg p.o.
  The number of eosinophils in BALF: 0.7 ± 0.2 × 10^5 cells/BALF
[2]; 100 mg/kg p.o.
  The number of eosinophils in BALF: 0.3 ± 0.1 × 10^5 cells/BALF
[3]; 1 mg/kg intravenously
  The number of times of scratching: 68.6 ± 18.8
[3]; 3 mg/kg intravenously
  The number of times of scratching: 61.3 ± 9.9
[3]; 10 mg/kg intravenously
  The number of times of scratching: 26.8 ± 16.8
[3]; 30 mg/kg intravenously
  The number of times of scratching: 6.3 ± 4.4
[3]; 10 or 30 mg/kg intravenously
  Effect on scratching behavior: significantly reduced scratching behavior
[4]; 0.3 μM
  Amount of IL-2: 48.4 ± 3.0 pg/mL
[4]; 1 μM
  Amount of IL-2: 36.1 ± 5.0 pg/mL
[4]; 3 μM
  Amount of IL-2: 22.9 ± 2.9 pg/mL
[4]; 10 μM
  Amount of IL-2: 11.7 ± 2.2 pg/mL
[4]; 30 μM
  Amount of IL-2: 4.3 ± 1.7 pg/mL
[4]; [7]
  Effect on in vitro OVA-stimulated IL-2 production: significantly inhibited
[5]; [7]
  Effect on in vitro OVA-stimulated IFN-γ production: significantly inhibited
[5]; 0.3 μM
  Amount of IFN-γ: 1462.9 ± 202.8 pg/mL
[5]; 1 μM
  Amount of IFN-γ: 658.1 ± 66.6 pg/mL
[5]; 3 μM
  Amount of IFN-γ: 457.6 ± 51.0 pg/mL
[5]; 10 μM
  Amount of IFN-γ: 349.7 ± 81.0 pg/mL
[5]; 30 μM
  Amount of IFN-γ: 160.5 ± 42.9 pg/mL
[6]; 3 to 30 μM, spleen cells from OVA-sensitized mice
  Effect on in vitro OVA-stimulated IL-4 production: significantly inhibited
[6]; 0.3 μM
  Amount of IL-4: 253.0 ± 45.9 pg/mL
[6]; 1 μM
  Amount of IL-4: 203.3 ± 37.3 pg/mL
[6]; 3 μM
  Amount of IL-4: 139.0 ± 19.3 pg/mL
[6]; 10 μM
  Amount of IL-4: 67.9 ± 8.1 pg/mL
[6]; 30 μM
  Amount of IL-4: 12.8 ± 1.1 pg/mL
